Activity calls are given as the source filed them.
Legend:
[1] = target: G-protein coupled receptor 55 (Homo sapiens, UniProt Q9Y2T6); assay: inhibition of LPI-stimulated GPR55 beta-arrestin translocation – imaging, U2OS, beta-arrestin-GFP, LPI agonist, primary screen (AID 2013); format: functional;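 further: antagonist potency measured as reduced agonist-driven arrestin aggregation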
Cannabinoid receptor 1 [2] = target: T1, Cannabinoid receptor 1 (Homo sapiens, UniProt P21554); assay: SAR analysis of antagonists of the Cannabinoid Receptor 1 using an Image-Based Assay - Set 2. [Related pubchem assays (depositor defined):AID2013, AID2026]; format: functional
[3] = target: T2, G-protein coupled receptor 35 (Homo sapiens, UniProt Q9HC97); assay: SAR analysis of Agonists of the GPR35 Receptor using an Image-Based Assay - Set 2. [Related pubchem assays (depositor defined):AID2013, AID2026]; format: functional
Cannabinoid receptor 2 [4] = target: T3, Cannabinoid receptor 2 (Homo sapiens, UniProt P34972); assay: SAR analysis of antagonists of the Cannabinoid Receptor 2 using an Image-Based Assay. [Related pubchem assays (depositor defined):AID2013, AID2026]; format: functional
Cannabinoid receptor 1 [5] = target: T1, Cannabinoid receptor 1; assay: SAR analysis of agonists of the Cannabinoid Receptor 1 using an Image-Based Assay - Set 2. [Related pubchem assays (depositor defined):AID2013, AID2026]; format: functional
[6] = target: T2, G-protein coupled receptor 35; assay: SAR analysis of Antagonists of the GPR35 Receptor using an Image-Based Assay - Set 3. [Related pubchem assays (depositor defined):AID2013, AID2026]; format: functional
Cannabinoid receptor 2 [7] = target: T3, Cannabinoid receptor 2; assay: SAR analysis of agonists of the Cannabinoid Receptor 2 using an Image-Based Assay. [Related pubchem assays (depositor defined):AID2013, AID2026]; format: functional
[8] = target: T4, Replicative DNA helicase DnaB (Mycobacterium tuberculosis, UniProt P9WMR3); assay: DnaB intein splicing inhibitors, dose response, biochemical, cell-free fluorescence (AID 449749); format: functional
T4 sequence (P9WMR3 whole entry): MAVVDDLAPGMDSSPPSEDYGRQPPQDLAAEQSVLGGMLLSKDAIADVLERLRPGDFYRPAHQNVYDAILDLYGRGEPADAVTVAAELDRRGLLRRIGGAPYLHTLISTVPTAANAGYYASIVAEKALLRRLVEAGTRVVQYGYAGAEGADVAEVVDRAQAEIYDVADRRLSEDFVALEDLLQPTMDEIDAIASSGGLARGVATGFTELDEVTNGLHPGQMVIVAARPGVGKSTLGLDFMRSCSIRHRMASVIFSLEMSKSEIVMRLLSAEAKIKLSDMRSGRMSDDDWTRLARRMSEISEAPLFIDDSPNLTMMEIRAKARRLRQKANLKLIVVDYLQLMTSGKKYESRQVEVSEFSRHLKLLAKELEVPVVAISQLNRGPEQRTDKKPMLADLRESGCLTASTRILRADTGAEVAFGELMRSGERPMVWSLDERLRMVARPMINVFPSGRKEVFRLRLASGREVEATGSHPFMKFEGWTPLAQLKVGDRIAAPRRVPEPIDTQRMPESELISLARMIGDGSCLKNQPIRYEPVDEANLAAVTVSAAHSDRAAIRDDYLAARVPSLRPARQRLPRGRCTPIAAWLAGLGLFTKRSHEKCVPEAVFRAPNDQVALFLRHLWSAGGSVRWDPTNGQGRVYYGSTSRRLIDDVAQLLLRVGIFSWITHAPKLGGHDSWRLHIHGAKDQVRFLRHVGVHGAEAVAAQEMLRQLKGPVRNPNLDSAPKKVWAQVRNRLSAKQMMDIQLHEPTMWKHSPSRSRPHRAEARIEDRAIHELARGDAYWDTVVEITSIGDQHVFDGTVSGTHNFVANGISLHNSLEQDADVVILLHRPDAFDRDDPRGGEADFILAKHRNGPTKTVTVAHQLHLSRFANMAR

Protein RecA = target: T5, Protein RecA (Mycobacterium tuberculosis, UniProt P9WHJ3); assay: Fluorescence Cell-Free Homogeneous Dose Retest to Identify Inhibitors of RecA-Intein Splicing Activity. [Related pubchem assays (depositor defined):AID2097, AID2223, AID489010, AID492950]; format: functional
T5 sequence (P9WHJ3 whole entry): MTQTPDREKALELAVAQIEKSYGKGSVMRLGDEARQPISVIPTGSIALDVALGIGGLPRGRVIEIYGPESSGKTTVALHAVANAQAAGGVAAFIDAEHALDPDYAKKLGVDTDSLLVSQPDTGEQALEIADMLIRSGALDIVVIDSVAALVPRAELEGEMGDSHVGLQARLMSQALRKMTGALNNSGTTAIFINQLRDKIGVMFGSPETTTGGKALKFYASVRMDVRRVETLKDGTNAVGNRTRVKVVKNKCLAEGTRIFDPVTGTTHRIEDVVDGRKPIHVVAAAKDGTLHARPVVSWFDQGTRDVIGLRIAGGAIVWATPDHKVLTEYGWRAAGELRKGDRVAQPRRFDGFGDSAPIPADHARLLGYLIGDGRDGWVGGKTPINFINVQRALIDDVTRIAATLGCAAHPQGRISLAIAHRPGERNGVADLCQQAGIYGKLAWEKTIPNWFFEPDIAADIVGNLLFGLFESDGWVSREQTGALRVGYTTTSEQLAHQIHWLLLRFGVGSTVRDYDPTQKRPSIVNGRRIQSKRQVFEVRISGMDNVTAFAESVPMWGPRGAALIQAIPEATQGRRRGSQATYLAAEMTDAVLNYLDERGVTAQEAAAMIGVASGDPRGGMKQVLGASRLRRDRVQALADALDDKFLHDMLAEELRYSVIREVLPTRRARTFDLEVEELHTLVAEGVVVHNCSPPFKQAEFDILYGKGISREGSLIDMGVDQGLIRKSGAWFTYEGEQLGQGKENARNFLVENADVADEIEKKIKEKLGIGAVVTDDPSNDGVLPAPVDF

[9] = target: Sphingosine 1-phosphate receptor 1 (Homo sapiens, UniProt P21453); assay: Fluorescence-based counterscreen assay for S1P4 agonists: Cell-based dose response high throughput screening assay to identify agonists of the Sphingosine 1-Phosphate Receptor 1 (S1P1). [Related pubchem assays (depositor defined):AID1509, AID1523, AID1801, AID463107, AID463118, AID463119, AID463122, AID463123, AID463129, AID463225, AID504400, AID504460]; format: functional
[10] = test system: Streptococcus sp. 'group A'; assay: Streptococcus pyogenes SK(-)GAS viability under kanamycin – luminescence, BacTiterGlo, confirmation, counter-screen for streptokinase expression inhibitor project, dose response (AID 1900); format: functional, organism-based
Streptokinase A = target: T6, Streptokinase A (Streptococcus pyogenes serotype M1, UniProt P10520); assay: viability-normalized secreted streptokinase activity reduction – plasminogen activation absorbance, OD405, dose response (AID 1914); format: functional, Streptococcus pyogenes M1 GAS;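 further: secreted streptokinase activity via plasminogen activation per viability signal from cell pellet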
T6 sequence (P10520 whole entry): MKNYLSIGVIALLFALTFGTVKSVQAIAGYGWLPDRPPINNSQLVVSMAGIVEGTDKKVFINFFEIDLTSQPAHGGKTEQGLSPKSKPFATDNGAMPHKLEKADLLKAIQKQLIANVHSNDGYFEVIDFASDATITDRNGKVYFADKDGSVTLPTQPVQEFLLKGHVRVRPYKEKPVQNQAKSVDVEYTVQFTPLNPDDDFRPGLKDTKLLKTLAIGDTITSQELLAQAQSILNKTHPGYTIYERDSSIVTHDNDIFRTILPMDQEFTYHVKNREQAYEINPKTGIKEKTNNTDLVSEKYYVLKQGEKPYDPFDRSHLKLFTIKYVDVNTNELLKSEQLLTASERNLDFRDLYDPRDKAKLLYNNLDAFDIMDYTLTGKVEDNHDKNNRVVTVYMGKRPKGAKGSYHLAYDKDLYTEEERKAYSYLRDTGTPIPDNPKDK

[11] = target: Sphingosine 1-phosphate receptor 4 (Homo sapiens, UniProt O95977); assay: Fluorescence dose response cell-based high throughput screening assay for agonists of the Sphingosine 1-Phosphate Receptor 4 (S1P4). [Related pubchem assays: 1509 (Primary screen.), 1523 (Confirmation screen in triplicates.)]; format: functional
Streptococcus = assay: GAS UMAA2166 growth inhibition – luminescence, BacTiterGlo, counter-screen for streptokinase expression inhibitor project, dose response (AID 1915); format: functional, organism-based;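 further: potency for reduction of bacterial viability or growth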
Hexokinase HKDC1 = target: T7, Hexokinase HKDC1 (Homo sapiens, UniProt Q2TB90); assay: activation of HKDC1 glucose phosphorylation – biochemical, W721R variant, dose response (AID 504730); format: functional
T7 sequence (Q2TB90 whole entry): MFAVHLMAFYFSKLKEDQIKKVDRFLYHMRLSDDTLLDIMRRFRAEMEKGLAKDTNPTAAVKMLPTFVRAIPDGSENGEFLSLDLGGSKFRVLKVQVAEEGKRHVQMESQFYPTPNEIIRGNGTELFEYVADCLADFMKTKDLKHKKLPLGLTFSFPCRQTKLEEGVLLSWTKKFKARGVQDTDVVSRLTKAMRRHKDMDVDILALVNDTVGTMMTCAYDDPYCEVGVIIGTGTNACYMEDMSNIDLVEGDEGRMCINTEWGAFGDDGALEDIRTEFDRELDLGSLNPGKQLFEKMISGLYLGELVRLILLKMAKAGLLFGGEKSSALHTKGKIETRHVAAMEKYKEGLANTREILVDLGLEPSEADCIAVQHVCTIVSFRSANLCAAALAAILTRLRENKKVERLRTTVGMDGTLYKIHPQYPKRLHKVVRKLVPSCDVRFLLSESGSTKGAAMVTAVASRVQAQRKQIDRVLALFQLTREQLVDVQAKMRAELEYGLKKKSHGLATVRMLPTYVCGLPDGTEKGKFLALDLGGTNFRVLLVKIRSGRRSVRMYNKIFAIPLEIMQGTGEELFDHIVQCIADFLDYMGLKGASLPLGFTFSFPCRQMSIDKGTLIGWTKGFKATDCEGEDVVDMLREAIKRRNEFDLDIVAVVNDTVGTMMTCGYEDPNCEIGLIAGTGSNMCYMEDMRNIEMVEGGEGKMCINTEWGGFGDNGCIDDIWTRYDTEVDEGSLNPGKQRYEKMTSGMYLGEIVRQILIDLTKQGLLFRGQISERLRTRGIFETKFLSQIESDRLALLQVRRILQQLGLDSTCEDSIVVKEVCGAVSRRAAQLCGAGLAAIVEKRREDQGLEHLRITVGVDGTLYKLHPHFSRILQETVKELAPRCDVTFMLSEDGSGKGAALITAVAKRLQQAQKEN

Hexokinase-1 = target: T8, Hexokinase-1 (Homo sapiens, UniProt P19367); assay: HK1 enzyme activation by HKDC1 hits – biochemical, selectivity assay for HKDC1 activator project, dose response (AID 504762); format: functional
T8 sequence (P19367 whole entry): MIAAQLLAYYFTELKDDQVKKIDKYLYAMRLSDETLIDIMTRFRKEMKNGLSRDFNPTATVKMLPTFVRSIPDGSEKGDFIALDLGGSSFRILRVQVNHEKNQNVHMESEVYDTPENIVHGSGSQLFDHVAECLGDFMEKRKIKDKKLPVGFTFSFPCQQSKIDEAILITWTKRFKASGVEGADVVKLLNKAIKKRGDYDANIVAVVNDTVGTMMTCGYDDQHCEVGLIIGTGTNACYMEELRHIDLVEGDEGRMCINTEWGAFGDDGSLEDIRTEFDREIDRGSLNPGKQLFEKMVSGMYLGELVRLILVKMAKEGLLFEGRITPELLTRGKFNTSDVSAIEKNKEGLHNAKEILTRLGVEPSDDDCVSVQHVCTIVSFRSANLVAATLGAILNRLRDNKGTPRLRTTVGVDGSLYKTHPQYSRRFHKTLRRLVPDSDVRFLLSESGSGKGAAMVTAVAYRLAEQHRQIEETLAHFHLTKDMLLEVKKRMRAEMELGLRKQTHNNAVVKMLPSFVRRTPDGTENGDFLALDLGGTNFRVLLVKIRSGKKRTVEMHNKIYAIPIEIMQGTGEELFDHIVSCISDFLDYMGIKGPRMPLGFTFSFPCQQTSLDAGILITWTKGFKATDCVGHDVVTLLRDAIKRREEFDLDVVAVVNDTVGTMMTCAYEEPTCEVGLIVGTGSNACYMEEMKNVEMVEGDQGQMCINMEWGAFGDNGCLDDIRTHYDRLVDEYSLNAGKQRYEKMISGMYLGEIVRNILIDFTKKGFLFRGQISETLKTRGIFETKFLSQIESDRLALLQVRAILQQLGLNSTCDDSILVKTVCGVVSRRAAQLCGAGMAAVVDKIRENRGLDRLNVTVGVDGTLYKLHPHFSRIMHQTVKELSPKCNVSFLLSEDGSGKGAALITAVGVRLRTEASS

[12] = viability of PTEN-deleted HCT116 cells – cell-based, HCT116 PTEN knockout, dose response (AID 1047); format: functional;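 further: HCT116 colon tumor cells with PTEN knocked out; cells exposed to compound for 60 hours before readout; potency for loss of cell viability measured by luminescence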
[13] = viability of HCT116 lacking mutant beta-catenin – cell-based, human colon tumor, dose response (AID 1045); format: functional;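 further: HCT116 colon tumor cells with beta catenin knocked out; cells exposed to compound for 60 hours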

T3 sequence (P34972 whole entry): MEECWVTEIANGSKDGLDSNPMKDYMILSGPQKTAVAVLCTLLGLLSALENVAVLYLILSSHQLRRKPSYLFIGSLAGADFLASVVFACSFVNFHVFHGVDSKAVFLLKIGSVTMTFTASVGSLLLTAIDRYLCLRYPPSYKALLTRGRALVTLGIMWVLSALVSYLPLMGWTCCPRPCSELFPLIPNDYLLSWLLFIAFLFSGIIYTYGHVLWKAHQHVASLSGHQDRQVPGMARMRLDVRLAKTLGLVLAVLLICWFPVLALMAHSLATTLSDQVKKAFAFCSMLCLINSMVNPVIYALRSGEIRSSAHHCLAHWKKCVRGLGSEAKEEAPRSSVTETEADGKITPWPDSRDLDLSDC
T1 sequence (P21554 whole entry): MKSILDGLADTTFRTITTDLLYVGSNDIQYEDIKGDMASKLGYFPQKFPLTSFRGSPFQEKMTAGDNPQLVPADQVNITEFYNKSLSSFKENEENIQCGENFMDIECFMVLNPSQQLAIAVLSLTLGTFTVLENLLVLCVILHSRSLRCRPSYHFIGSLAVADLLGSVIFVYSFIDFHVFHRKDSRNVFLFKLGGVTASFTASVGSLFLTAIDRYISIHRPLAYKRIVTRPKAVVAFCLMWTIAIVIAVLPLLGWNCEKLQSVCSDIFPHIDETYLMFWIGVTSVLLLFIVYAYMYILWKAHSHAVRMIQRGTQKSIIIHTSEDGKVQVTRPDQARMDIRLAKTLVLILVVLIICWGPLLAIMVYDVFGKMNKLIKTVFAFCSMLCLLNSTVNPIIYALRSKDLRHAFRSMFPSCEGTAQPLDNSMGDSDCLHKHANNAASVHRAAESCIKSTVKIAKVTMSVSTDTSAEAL
T2 sequence (Q9HC97 whole entry): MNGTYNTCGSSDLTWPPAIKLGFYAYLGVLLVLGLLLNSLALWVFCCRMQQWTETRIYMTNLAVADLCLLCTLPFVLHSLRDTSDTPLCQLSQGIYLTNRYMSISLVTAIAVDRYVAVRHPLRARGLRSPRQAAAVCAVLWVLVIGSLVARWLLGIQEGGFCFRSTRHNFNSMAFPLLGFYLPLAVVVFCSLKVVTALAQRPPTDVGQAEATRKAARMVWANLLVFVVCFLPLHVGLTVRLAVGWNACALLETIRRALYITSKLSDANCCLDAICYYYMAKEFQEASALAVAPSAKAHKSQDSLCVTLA
Chain of Sphingosine 1-phosphate receptor 1 (P21453 whole entry): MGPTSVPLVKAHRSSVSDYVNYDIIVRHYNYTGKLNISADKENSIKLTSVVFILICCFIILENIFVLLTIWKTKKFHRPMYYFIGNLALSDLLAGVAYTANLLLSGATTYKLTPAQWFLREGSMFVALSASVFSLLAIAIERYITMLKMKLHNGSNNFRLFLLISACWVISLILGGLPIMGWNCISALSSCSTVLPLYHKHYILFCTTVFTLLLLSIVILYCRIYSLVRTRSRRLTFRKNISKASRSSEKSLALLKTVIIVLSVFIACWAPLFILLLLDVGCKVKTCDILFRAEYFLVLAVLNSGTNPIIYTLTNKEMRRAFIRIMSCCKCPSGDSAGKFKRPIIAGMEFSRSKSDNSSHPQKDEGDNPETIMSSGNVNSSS
Chain of Sphingosine 1-phosphate receptor 4 (O95977 whole entry): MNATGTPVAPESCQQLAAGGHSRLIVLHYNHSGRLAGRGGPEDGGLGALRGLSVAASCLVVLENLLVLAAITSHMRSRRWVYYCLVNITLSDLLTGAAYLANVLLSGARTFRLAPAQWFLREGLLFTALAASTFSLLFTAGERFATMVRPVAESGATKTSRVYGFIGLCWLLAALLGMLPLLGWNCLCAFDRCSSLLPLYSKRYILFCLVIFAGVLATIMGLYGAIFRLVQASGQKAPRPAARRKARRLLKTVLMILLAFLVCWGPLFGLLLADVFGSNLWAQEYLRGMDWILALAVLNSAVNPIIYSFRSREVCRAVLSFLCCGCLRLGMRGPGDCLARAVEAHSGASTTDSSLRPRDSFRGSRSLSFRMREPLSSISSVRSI
Chain of G-protein coupled receptor 55 (Q9Y2T6 whole entry): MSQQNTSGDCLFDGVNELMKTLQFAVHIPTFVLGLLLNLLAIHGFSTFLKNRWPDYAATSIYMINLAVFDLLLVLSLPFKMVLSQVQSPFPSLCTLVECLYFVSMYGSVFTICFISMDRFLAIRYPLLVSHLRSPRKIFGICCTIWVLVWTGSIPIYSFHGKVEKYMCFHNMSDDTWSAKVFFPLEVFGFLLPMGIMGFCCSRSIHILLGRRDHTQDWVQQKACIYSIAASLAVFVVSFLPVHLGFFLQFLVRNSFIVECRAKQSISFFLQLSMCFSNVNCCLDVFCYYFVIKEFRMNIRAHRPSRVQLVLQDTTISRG

With `O=C(c1ccco1)N1CCN(c2nc(C3CC3)nc3sc4c(c23)CCCC4)CC1` the IC50 [1] was 1.74 µM (active), the IC50 (Cannabinoid receptor 1 [2]) was > 32 µM (inactive) and the EC50 [3] was > 32 µM (inactive). The IC50 (Cannabinoid receptor 2 [4]) was > 32 µM (inactive), the EC50 (Cannabinoid receptor 1 [5]) was > 32 µM (inactive) and the IC50 [6] was > 32 µM (inactive). For the same compound, the EC50 (Cannabinoid receptor 2 [7]) was > 32 µM (inactive), the AC50 [8] was 2.35 µM (active) and the EC50 (Protein RecA) was 29.6 µM (active).
For `CC(C)C[C@H](NC(=O)c1[nH]cnc1C(=O)NCc1ccccc1)C(=O)OCc1ccccc1`, the EC50 [9] was > 49.8 µM (inactive), the EC50 [10] was 3.55 µM (active) and the EC50 (Streptokinase A) was > 150 µM (not active). For the same compound, the EC50 [11] was 14.4 µM (not active) and the EC50 (Streptococcus) was 20.5 µM (active).
For `Cn1cnnc1SC1c2cccc3cccc(c23)C1NS(=O)(=O)c1ccccc1` (configuration not stated), the EC50 (Hexokinase HKDC1) was 46.7 µM (inactive) and the EC50 (Hexokinase-1) was 24.7 µM (inactive).
In the case of `COc1ccc(C2CC(c3cccs3)=NN2c2ccccc2)cc1` (configuration not stated), the EC50 [9] is reported as 5.45 µM (active) and the EC50 [11] is reported as 12.3 µM (not active).
For `Fc1ccc(NC2=NN=C(c3cc(F)ccc3F)CS2)cc1`, the EC50 [12] was 18.5 µM (active), the EC50 [13] was 20.1 µM (active) and the EC50 (Hexokinase HKDC1) was 35.7 µM (inactive). The EC50 (Hexokinase-1) was 28.9 µM (inactive).

From ChEMBL document CHEMBL1201862, “PubChem BioAssay data set” (2004)
